# Results reported in a melting point compilation (Tetko et al.; mined from patent text by program, amines drawn as free bases though some values may be those of a salt).
row,Structure (SMILES),melting point
1,CC(=O)N1N=C(c2ccc([N+](=O)[O-])c(C)c2)c2cc3c(cc2CC1C(N)=O)OCO3 (stereo not given),157 to 161 °C
2,CC(C)CC1=CC(c2ccccc2)C2=C(CCCC2=O)N1 (stereo not given),182 to 184 °C
3,CCCCCOc1cc(C(=O)O)cc(N)c1C(=O)c1ccccc1,168 to 170 °C
4,Cc1nc(C(F)(F)F)ccc1/C=C/C(=O)Nc1ccc2cc[nH]c2c1,223 °C
5,COc1ccc(C2(O)CCCCC2)cn1,74 to 75 °C
6,Cc1cc(-c2ccc(S(N)(=O)=O)cc2)n(-c2ccc(F)cc2F)c1,140 to 141 °C
7,COC(=O)c1ccccc1S(=O)(=O)NC(=O)Nc1nc(Cl)cn(C)c1=O,213 to 214 °C
8,CCOC(=O)c1ccc(OCCCN2CCN(c3ccc(Cl)nn3)CC2)cc1,125 to 127 °C
9,CN(C)C=C(C#N)C=O,140 to 141 °C
10,CC1(C)Oc2ccc(OC(F)(F)F)cc2[C@@H](N2Cc3ccccc3C2=O)[C@@H]1O (relative stereo),212 to 213 °C
11,CC1CC(C)CN(Cc2ccc(NC(=O)C#Cc3ccc(-c4ccc(Cl)cc4)cc3)cc2)C1 (stereo not given),209 to 214 °C
12,CCOC(=O)c1c(N2CCN(C(=O)c3ccco3)CC2)c2sccc2n(CC(=O)c2ccccc2)c1=O,246 °C
13,O=C(c1ccccc1)c1ccc2nc(CS(=O)c3ccccn3)[nH]c2c1 (stereo not given),142 to 145 °C
14,Nc1ccc(S(=O)(=O)NCCCN2CCOCC2)cc1,96 to 97 °C
15,NC(Cc1cnc2ccccc2c1)C(=O)O (stereo not given),241 to 243 °C
16,O=C(Nc1ccc(C(=O)N2Cc3cccn3Cc3ccccc32)cc1)c1cccnc1Oc1ccc(Cl)cc1,211 to 212 °C
17,CCCCCCCOc1c(OC)cc([N+](=O)[O-])c2nccc(C)c12,52 to 55 °C
18,CCCCc1nn(-c2cc(N)ccc2Cl)c(=O)n1Cc1ccc(-c2ccccc2S(=O)(=O)NC(=O)c2ccccc2Cl)cc1,155 to 157 °C
19,CCCN(Cc1ccc(-c2ccccc2-c2nc(=O)o[nH]2)cc1)c1nn(C)cc1C(=O)OCC,182 to 183 °C
20,N#CC(Cl)Cc1ccc(Cl)cc1C(=O)c1ccccc1F (stereo not given),94 to 95 °C
21,CCn1c(C)nc2cc(C(F)(F)F)c(OC)cc21,127 to 130 °C
22,CC(C)(C)NC(=O)NCC#CCNC(=O)Nc1nc2c(s1)-c1c(cnn1-c1ccccc1)CC2,196 °C
23,CCCCC(=O)c1c(-c2ccc3cc(OCC(=O)OCC)ccc3c2)oc2ccc(Cl)cc12,80 to 83 °C
24,CCCCCCC(NS(=O)(=O)c1ccc(Cl)cc1)C(=O)Nc1ccc(CC(=O)O)cc1 (racemic),192 to 193 °C

row,Structure (SMILES),melting point
1,CCOC(=O)C(O)(Cc1ccc2ccccc2n1)C(=O)OCC,71 to 72 °C
2,COc1ccc(-c2cc(C(F)(F)F)nn2-c2ccc(S(N)(=O)=O)cc2)cc1I,220 to 224 °C
3,O=C(O)c1ccc(-c2ccc3nnn(Cc4c(F)ccc(F)c4Cl)c3n2)cc1F,211 to 213 °C
4,Cn1nc2ccccc2c1C(=O)NC1CCN(CCCc2ccc(F)cc2)CC1,162 to 165 °C
5,CCCCCOc1cc2c(cc1/C=C/C=C/C(C)=C/C(=O)O)C(C)(C)CCC2(C)C,162 to 163 °C
6,CCCCc1ncc(C(=O)OCC)c(NCc2ccc(-c3ccccc3-c3nnn[nH]3)cc2)n1,153 to 155 °C
7,Cc1ccc(Oc2ccc(C)cc2C(=O)O)cc1,113 to 115 °C
8,CC(=O)Nc1cc(F)c(OC(F)F)cc1[N+](=O)[O-],72 to 74 °C
9,COc1ccc(N2CCN(c3c(C)c(C)c4c(c3C)CC(C)(CN3CCC5(CC3)OCCO5)O4)CC2)cc1 (stereo not given),165 to 167 °C
10,CCOC(=O)[C@H](Cc1ccc(OC)c(OC)c1)NC(=O)c1ccnc(Br)c1,108 to 109 °C
11,CCOC(=O)c1ccc(OCC#Cc2ccccc2)c(OC)c1,62 to 65 °C
12,CC(=O)N1CCc2cc(Cl)ccc21,115 to 116 °C
13,CCc1nc2c([C@H](O)CO)cccc2cc1C,66 °C
14,CC(COc1ccccc1)OS(C)(=O)=O (stereo not given),58 °C
15,c1ccc(-c2ccc3[nH]c4c(ccc5cc[nH]c54)c3c2)cc1,> 250 °C
16,CS(=O)(=O)c1ccc(Nc2ccn(-c3ccccc3)n2)cc1,185 to 187 °C
17,COC(=O)c1[nH]c(-c2ccccc2)c(-c2ccccc2)c1C(=O)OC,185 to 187 °C
18,Cc1cc(C)cc(COC2CCC(N)(c3ccccc3)C(OCc3cc(C)cc(C)c3)C2)c1 (stereo not given),103 to 105 °C
19,Cc1noc(-c2ncn3c2[C@@H]2CCCN2C(=O)c2c-3ccc(F)c2Cl)n1,245 to 246 °C
20,O=C(O)c1ccc(NC(=O)c2ccc(Cl)cc2Cl)cc1Cl,171 to 175 °C
21,CS(=O)(=O)c1ccc(-c2nc(C(F)(F)F)nn2-c2ccc(O)cc2)cc1,246 °C
22,Cn1c2ccc(-c3nnn[nH]3)cc2c(=O)c2cc(-c3nnn[nH]3)ccc21,> 400 °C
23,CSc1c(C)[nH]c2ccc([N+](=O)[O-])cc12,198 °C
24,CC(=O)Nc1ccc(N2CCC(O)CC2)cc1,191 °C

row,Structure (SMILES),melting point
1,CN1C2CCCC1CC(NC(=O)c1cccc3oc(-c4ccc(Cl)cc4)nc13)C2 (stereo not given),185 to 187 °C
2,CCCCC(=O)c1sc(Oc2ccc3c(c2)OCO3)c2c1CCc1cnn(C)c1-2,101 to 102 °C
3,NC(=S)Nc1ccc(Br)cn1,242 to 243 °C
4,CS(=O)(=O)c1ccc(-c2nn3c(c2-c2ccc(F)cc2)OCCCC3)cc1,167 to 168 °C
5,c1ccc(C(c2ccnc3ccccc23)n2ccnc2)cc1 (stereo not given),143 °C
6,CC(C)NC1CN(c2c(F)cc3c(=O)c(C(=O)O)cn(-c4nc(N)c(F)cc4F)c3c2Br)C1,> 203 °C
7,COC(=O)C(C)(C)OCc1cc2cc(Cl)ccc2n1S(=O)(=O)c1ccc2c(c1)CCN2C(C)=O,128 to 130 °C
8,N#Cc1cccc(CSCCNC(=O)c2c(Cl)cccc2Cl)c1,123 to 125 °C
9,CCCCCCCCCCCCCCCCCCCCCCSCCC(=O)NN,106 °C
10,CC(C)n1nc(-c2cc(Br)c(N)nc2-c2ccccc2)ccc1=O,174 to 176 °C
11,O=c1cc(-c2ccccc2)[nH]c2c(O)c(O)ccc12,270 to 274 °C
12,CCCc1nn(C)c(C(N)=O)c1NC(=O)c1cc([N+](=O)[O-])cnc1OCC,251 to 253 °C
13,N#CCOC(=O)c1cc(SCc2ccccc2)c(Cc2ccccc2)c(S(N)(=O)=O)c1,190 to 192 °C
14,CCOC(C#N)NC(=O)c1ccccc1 (stereo not given),107 to 110 °C
15,CCCc1nn(-c2ccc(C(F)(F)F)cn2)cc1CCCOc1c(C)cnn1CC(=O)O,145 to 146 °C
16,Nc1ccc(N)c(I)c1,95 to 99 °C
17,O=C(O)c1cc2cc3[nH]c(=O)[nH]c3cc2[nH]1,> 270 °C
18,CC(Cc1c[nH]c2ccccc12)(NC(=O)OC1C2CC3CC(C2)CC1C3)C(=O)NCC(CSCC(=O)O)c1ccccc1 (stereo not given),78 to 93 °C
19,C=CCON(C)C(=O)c1nc(-c2ccc(Cl)c(OC)c2F)cc(N)c1Cl,134 to 136 °C
20,CCCCCCCCCCCCCCCCCCCCC(CCCCCCCCCCCCCC)C(=O)O (stereo not given),65 to 67 °C
21,CC(=O)OCC1OC(OC2C(COC(C)=O)OC(O)(Br)C(OC(C)=O)C2OC(C)=O)C(OC(C)=O)C(OC(C)=O)C1OC(C)=O (stereo not given),97 to 99 °C
22,CC1C(=O)NCCN1C(=O)C(Cl)Cl (stereo not given),167 to 168 °C
